Test results as given in ChEMBL document CHEMBL5678818, “Discovery of potent SOS1 inhibitors that block RAS activation via disruption of the RAS-SOS1 interaction” (Proc Natl Acad Sci U S A, 2019).

How the values were obtained:
[1] = target: Tyrosine-protein kinase ABL1 (Homo sapiens) (UniProt P00519); assay: Inhibition of nonphosphorylated ABL1 (unknown origin) assessed as residual activity at 100 nM by KINOMEscan analysis relative to control
[2] = target: T1, Calcium/calmodulin-dependent protein kinase type IV (Homo sapiens) (UniProt Q16566); assay: Inhibition of CAMK4 (unknown origin) assessed as residual activity at 100 nM by KINOMEscan analysis relative to control
T1 sequence (whole entry): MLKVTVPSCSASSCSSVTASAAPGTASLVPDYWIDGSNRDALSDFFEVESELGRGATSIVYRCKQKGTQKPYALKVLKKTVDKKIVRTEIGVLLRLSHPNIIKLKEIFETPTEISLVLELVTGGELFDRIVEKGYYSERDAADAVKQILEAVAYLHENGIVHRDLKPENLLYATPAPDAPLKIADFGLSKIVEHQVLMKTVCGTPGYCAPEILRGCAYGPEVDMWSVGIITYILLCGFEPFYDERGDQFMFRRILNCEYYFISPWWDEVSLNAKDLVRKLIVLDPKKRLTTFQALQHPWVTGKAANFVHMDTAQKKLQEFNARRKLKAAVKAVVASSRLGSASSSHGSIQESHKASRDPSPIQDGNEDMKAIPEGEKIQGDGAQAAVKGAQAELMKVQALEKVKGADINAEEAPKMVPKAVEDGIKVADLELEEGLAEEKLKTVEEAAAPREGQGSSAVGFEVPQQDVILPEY

[3] = target: Dual specificity protein kinase CLK3 (Homo sapiens) (UniProt P49761); assay: Inhibition of CLK3 (unknown origin) assessed as residual activity at 100 nM by KINOMEscan analysis relative to control
[4] = tested on: Receptor-type tyrosine-protein kinase FLT3 (Homo sapiens), P36888 [N841I]; assay: Inhibition of FLT3 N841I mutant (unknown origin) assessed as residual activity at 100 nM by KINOMEscan analysis relative to control
[5] = tested on: eIF-2-alpha kinase GCN2 (Homo sapiens), Q9P2K8 [S808G]; assay: Inhibition of GCN2 S808G mutant […] domain (unknown origin) assessed as residual activity at 100 nM by KINOMEscan analysis relative to control
[6] = target: Mitogen-activated protein kinase kinase kinase kinase 1 (Homo sapiens) (UniProt Q92918); assay: Inhibition of HPK1 (unknown origin) assessed as residual activity at 100 nM by KINOMEscan analysis relative to control
[7] = target: Tyrosine-protein kinase JAK2 (Homo sapiens) (UniProt O60674); assay: Inhibition of JAK2 JH1 catalytic domain (unknown origin) assessed as residual activity at 100 nM by KINOMEscan analysis relative to control
[8] = target: T2, Myosin light chain kinase family member 4 (Homo sapiens) (UniProt Q86YV6); assay: Inhibition of MYLK4 (unknown origin) assessed as residual activity at 100 nM by KINOMEscan analysis relative to control
T2 sequence (whole entry): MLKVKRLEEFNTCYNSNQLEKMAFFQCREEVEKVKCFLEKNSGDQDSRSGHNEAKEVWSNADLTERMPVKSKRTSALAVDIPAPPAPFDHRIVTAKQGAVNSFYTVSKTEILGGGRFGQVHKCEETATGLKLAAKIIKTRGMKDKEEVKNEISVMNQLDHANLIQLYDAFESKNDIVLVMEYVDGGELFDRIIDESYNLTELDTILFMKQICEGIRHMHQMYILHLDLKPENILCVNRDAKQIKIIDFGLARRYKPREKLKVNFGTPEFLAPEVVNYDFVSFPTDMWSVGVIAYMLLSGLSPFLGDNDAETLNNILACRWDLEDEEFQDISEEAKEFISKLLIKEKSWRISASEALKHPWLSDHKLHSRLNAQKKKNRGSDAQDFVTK

[9] = target: Phosphatidylinositol 4,5-bisphosphate 3-kinase catalytic subunit alpha isoform (Homo sapiens) (UniProt P42336); assay: Inhibition of PIK3CA (unknown origin) assessed as residual activity at 100 nM by KINOMEscan analysis relative to control
[10] = target: T3, Serine/threonine-protein kinase tousled-like 1 (Homo sapiens) (UniProt Q9UKI8); assay: Inhibition of TLK1 (unknown origin) assessed as residual activity at 100 nM by KINOMEscan analysis relative to control
T3 sequence (whole entry): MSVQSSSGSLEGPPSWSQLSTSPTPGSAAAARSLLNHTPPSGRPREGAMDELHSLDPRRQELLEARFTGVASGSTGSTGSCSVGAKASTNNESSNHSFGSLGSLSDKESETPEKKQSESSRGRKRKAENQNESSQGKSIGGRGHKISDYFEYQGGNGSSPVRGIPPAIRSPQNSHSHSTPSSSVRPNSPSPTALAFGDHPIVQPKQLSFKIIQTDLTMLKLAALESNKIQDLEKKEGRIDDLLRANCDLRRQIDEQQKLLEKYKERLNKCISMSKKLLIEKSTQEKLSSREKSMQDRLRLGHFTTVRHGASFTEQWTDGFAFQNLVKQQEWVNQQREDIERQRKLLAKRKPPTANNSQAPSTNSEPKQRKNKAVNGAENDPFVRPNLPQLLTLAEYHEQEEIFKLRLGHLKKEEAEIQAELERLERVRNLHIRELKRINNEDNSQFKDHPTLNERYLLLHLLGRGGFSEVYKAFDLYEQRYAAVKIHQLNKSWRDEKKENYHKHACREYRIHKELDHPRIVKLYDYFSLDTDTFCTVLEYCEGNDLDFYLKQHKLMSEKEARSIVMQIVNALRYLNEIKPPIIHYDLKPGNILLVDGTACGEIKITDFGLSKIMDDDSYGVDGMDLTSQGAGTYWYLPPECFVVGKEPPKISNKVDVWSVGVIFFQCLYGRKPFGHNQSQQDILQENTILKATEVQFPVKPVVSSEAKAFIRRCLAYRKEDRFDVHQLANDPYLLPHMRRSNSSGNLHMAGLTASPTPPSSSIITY

[11] = target: T4, Testis-specific serine/threonine-protein kinase 1 (Homo sapiens) (UniProt Q9BXA7); assay: Inhibition of TSSK1B (unknown origin) assessed as residual activity at 100 nM by KINOMEscan analysis relative to control
T4 sequence (whole entry): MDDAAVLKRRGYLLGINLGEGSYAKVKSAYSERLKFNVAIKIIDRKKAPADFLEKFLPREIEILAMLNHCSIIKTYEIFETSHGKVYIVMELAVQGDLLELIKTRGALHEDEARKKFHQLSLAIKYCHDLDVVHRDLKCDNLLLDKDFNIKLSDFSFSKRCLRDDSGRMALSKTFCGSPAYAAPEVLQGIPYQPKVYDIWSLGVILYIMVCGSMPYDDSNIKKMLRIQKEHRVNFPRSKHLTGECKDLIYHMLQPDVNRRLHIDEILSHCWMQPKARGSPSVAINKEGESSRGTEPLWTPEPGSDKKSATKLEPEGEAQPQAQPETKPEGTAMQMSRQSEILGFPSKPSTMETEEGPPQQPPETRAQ

Phosphatidylinositol 4,5-bisphosphate 3-kinase catalytic subunit alpha isoform (Homo sapiens), sequence (P42336 whole entry, canonical isoform): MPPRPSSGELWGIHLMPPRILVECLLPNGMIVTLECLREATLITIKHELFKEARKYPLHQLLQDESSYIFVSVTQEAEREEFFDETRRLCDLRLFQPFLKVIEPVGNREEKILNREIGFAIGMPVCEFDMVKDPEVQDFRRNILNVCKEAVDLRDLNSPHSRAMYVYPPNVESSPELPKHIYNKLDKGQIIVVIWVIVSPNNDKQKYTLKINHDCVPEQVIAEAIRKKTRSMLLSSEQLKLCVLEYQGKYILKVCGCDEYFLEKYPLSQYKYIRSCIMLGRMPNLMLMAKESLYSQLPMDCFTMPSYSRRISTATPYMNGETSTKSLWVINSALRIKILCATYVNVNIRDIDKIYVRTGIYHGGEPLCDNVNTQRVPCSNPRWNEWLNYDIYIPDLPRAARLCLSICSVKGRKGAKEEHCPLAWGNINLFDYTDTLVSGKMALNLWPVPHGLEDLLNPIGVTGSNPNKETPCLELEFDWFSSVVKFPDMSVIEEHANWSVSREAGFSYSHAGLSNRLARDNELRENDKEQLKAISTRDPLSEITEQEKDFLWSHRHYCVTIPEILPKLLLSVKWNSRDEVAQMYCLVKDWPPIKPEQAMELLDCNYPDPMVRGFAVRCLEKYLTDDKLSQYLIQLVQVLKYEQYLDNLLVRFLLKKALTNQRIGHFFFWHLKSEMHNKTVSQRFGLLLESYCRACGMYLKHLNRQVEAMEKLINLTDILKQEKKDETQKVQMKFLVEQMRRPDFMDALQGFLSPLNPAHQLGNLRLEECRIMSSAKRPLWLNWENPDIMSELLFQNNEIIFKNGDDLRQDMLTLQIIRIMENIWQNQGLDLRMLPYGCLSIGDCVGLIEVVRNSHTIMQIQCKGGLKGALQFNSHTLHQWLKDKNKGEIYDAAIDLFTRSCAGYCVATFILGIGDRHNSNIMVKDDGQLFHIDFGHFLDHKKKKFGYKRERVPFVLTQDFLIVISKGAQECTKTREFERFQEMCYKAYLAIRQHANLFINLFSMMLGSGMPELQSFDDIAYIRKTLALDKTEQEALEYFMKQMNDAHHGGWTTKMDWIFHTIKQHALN
Tyrosine-protein kinase JAK2 (Homo sapiens), sequence (O60674 whole entry, the tested form may be a part): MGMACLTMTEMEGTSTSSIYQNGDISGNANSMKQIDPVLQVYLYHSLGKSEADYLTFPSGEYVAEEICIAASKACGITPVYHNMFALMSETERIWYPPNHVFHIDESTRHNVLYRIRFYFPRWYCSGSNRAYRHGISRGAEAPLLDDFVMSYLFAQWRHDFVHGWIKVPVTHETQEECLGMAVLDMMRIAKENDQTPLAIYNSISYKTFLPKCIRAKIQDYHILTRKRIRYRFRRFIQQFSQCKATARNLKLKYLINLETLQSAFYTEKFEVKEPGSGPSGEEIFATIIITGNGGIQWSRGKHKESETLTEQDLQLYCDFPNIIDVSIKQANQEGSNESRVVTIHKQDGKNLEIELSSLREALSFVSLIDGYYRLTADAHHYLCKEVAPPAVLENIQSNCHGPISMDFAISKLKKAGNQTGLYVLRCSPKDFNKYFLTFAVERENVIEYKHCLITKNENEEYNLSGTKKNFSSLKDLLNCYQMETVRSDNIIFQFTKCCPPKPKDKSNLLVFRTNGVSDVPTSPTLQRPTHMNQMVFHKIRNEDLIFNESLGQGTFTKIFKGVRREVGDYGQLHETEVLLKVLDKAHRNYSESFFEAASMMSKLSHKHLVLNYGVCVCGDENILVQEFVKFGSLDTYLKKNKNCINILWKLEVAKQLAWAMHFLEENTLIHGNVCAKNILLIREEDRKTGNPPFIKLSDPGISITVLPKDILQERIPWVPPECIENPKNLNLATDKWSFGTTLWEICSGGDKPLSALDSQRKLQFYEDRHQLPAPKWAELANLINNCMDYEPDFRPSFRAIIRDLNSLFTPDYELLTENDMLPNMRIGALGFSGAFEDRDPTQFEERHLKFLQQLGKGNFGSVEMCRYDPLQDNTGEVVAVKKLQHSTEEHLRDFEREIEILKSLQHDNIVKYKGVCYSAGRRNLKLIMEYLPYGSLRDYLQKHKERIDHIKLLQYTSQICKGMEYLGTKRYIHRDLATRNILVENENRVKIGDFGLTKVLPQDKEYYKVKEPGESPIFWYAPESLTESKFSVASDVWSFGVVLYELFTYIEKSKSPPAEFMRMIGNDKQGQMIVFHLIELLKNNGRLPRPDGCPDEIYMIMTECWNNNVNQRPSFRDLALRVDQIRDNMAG
eIF-2-alpha kinase GCN2 (Homo sapiens), Q9P2K8 [S808G], sequence (Q9P2K8 whole entry S808G): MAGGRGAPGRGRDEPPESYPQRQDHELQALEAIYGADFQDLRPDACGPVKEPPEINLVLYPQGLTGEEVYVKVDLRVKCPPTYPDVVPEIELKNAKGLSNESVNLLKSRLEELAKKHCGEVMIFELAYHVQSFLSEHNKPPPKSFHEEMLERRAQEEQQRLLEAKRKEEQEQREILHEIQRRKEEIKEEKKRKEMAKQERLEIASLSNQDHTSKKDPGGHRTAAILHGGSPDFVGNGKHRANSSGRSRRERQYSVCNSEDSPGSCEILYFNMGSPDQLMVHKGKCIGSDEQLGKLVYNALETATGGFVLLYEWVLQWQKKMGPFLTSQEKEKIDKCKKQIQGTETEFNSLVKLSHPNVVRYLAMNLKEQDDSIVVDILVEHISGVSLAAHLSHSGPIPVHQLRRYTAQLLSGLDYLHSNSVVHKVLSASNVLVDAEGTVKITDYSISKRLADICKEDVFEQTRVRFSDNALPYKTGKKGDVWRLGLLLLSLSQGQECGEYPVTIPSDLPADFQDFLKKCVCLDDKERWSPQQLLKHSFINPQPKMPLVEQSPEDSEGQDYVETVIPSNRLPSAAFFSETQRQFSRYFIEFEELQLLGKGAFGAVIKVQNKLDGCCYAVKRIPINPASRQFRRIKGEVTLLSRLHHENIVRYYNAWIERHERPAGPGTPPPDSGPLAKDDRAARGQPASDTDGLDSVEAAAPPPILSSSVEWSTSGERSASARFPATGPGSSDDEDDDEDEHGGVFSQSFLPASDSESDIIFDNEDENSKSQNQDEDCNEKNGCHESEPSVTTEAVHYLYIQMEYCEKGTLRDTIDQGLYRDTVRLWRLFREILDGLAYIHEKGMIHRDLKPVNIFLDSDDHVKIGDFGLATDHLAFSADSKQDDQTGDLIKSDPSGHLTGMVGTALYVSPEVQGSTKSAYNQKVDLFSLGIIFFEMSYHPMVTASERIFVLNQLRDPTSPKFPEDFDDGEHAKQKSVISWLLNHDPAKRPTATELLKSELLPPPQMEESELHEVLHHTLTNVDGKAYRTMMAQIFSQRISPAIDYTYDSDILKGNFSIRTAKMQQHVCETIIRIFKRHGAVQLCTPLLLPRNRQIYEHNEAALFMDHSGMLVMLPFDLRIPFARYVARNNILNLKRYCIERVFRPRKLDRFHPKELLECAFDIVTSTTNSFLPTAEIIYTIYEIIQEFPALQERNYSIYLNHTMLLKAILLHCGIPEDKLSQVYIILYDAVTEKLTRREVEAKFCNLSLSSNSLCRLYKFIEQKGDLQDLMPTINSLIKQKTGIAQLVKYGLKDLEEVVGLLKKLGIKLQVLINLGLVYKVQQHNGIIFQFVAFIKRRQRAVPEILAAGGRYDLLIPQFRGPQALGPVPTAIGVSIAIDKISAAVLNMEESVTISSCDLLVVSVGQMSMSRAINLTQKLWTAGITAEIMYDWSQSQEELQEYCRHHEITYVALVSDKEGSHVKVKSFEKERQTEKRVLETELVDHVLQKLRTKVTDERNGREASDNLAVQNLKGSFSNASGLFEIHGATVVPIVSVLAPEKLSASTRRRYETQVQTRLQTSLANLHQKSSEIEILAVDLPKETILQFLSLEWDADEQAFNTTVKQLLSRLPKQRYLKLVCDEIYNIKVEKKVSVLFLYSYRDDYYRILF
Tyrosine-protein kinase ABL1 (Homo sapiens), sequence (P00519 whole entry): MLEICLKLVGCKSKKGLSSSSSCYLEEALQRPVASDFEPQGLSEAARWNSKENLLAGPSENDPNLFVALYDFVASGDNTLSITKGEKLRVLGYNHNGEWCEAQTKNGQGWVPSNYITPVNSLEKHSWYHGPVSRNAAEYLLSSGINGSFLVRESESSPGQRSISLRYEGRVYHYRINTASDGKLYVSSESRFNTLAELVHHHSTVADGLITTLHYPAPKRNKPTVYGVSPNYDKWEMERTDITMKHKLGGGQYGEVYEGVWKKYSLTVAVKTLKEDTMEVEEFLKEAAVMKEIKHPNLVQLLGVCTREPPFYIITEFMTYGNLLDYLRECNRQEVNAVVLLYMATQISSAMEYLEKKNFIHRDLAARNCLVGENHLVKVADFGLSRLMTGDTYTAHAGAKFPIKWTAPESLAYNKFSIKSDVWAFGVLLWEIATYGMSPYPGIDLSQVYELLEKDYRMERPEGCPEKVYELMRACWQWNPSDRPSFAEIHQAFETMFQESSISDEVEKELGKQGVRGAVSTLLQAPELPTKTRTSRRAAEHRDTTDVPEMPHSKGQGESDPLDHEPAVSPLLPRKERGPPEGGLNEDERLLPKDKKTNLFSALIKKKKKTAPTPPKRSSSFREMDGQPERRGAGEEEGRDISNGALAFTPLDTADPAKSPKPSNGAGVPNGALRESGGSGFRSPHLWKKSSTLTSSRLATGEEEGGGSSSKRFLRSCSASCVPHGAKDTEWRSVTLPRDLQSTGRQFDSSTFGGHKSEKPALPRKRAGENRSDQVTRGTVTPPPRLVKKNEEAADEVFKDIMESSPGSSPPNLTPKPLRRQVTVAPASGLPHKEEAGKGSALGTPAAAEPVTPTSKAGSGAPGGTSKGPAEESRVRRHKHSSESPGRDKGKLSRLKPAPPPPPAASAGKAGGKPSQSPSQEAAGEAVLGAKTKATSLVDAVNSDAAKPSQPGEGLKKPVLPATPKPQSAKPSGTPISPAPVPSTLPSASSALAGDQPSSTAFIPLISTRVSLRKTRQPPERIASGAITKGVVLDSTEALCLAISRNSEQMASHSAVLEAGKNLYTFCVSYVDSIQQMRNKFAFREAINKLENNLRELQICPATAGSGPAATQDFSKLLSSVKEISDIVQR

SMILES: COc1cc2ncnc(N[C@H](C)c3cccc4ccccc34)c2cc1OC
- Activity [1]: 99%
- Activity [2]: 100%
- Activity [3]: 92%
- Activity [4]: 100%
- Activity [5]: 100%
- Activity [6]: 81%
- Activity [7]: 93%
- Activity [8]: 99%
- Activity [9]: 66%
- Activity [10]: 79%
- Activity [11]: 84%
